Laboratory results reported in article PMC6190683 (Bioorganic & medicinal chemistry letters, 2017).

Biological target: Mtb NadE (Mycobacterium tuberculosis, UniProt P9WJJ3)
Experiment: ammonia-dependent Mtb NadE inhibition assay
Assay type: biochemical

Chain of Mtb NadE (P9WJJ3 whole entry): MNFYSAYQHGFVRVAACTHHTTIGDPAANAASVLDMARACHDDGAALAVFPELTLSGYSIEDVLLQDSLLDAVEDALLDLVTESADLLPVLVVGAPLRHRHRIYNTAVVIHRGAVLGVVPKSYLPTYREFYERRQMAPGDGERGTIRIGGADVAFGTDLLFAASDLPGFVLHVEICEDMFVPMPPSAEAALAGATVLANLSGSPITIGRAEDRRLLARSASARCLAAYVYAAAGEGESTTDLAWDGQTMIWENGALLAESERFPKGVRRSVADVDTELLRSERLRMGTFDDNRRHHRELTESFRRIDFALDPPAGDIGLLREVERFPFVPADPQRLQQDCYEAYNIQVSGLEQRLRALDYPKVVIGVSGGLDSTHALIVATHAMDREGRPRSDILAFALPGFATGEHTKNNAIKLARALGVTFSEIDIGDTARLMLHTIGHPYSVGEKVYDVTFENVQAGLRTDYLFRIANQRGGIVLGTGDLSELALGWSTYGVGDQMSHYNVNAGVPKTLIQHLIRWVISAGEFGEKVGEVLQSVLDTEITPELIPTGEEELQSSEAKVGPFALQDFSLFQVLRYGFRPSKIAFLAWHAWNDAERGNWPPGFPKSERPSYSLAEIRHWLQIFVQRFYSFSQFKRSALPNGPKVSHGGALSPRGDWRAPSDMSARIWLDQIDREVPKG

| Compound | IC50 |
| --- | --- |
| COc1ccc(NS(=O)(=O)c2ccc(NC(=O)Nc3ccc([N+](=O)[O-])cc3)cc2)cc1 [Compound 4d] | > 200 µM |
| O=C(Nc1ccc([N+](=O)[O-])cc1)Nc1ccc(S(=O)(=O)Nc2ccc([N+](=O)[O-])cc2)cc1 [Compound 4f] | > 200 µM |
| O=C(Nc1ccc([N+](=O)[O-])cc1)Nc1ccc(S(=O)(=O)Nc2cccc(C(F)(F)F)c2)cc1 [Compound 4h] | > 200 µM |
| O=C(Nc1ccc([N+](=O)[O-])cc1)Nc1ccc(S(=O)(=O)Nc2ccccc2)cc1 [Compound 4l] | > 200 µM |
